Results: patent US9121007B2, “Treatment of bone-related cancers using placental stem cells” (ANTHROGENESIS CORPORATIN, priority 2010, dated 2015)

Tested on: osteoclast precursors
Assay: Osteoclastogenesis from osteoclast precursors with lenalidomide
Type: cell-based
Procedure: FIG. 15. Therefore, there is a possible synergistic or additive anti-osteoclastogenic effect of PDACs and lenalidomide at concentration of between about 0.1 μM to 1 μM.

Nc1cccc2c1CN(C1CCC(=O)NC1=O)C2=O (centres unmarked) [lenalidomide, 3-(4-amino-1-oxo 1,3-dihydro-2H-isoindol-2-yl) piperidine-2,6-dione]
number of osteoclasts that differentiated from the osteoclast precursors (0.1 μM or 1 μM lenalidomide with placental stem cells, vs placental stem cells or BM-MSC): further decrease the number of osteoclasts
number of osteoclasts formed (lenalidomide alone at concentrations around 1 μM): steep decline in the number of osteoclasts formed
